Reference: patent US4555572A, “Pyrazolo[3,4,5-kl]acridine compositions and methods for their production and use” (Warner-Lambert Company, priority 1984, dated 1985)
Structures can show the parent of a compound that is named as a salt. Where two headings read alike, the source gives them in different places.

Columns and labels:
L1210 cells = assay: PDC test, L1210 cell growth; assay type: cell-based, murine; settings: Mus musculus, read-out: PDC ID50
Description: (c) Another test protocol is the PDC test. L1210 cells, a murine leukemia cell line, were grown in RPMI 1640 supplemented with 10% fetal bovine serum and genamicin (50 μg/ml). Drug dilutions were prepared in the appropriate solvent and 20 μl of each dilution were added to 24-well Linbro tissue culture plates followed by the addition of 2.0 ml of cell suspension containing 3×10^4 cells per ml. Solvent and medium controls were included in each test. After incubation at 37° C. for three days in 5% CO2 in air, the contents of each well were removed and the cells counted in a ZBI Coulter counter. Per cent growth was calculated relative to the controls and the levels of drug activity were expressed as ID50 in terms of molarity (M).

[1] = system: lymphocytic leukemia P388; assay: in vivo lymphocytic leukemia P388 test; design: species or system CD2 F1 mice; settings: Mus musculus, P388, ip, 120 h, intraperitoneally once daily for five days, read-out: P388 in vivo T/C × 100
Description: Another test protocol is the in vivo lymphocytic leukemia P388 test. The animals used are either male or female CD2 F1 mice, six or seven animals per test group. The tumor transplant is by intraperitoneal injection of dilute ascitic fluid containing cells of lymphocytic leukemia P388. The test compounds are administered intraperitoneally once daily for five consecutive days at various doses following tumor inoculation. The animals are weighed and survivors are recorded on a regular basis for 30 days. A compound is designated "toxic" if, at a given dose, all animals died prior to four days after the first injection of drug. A ratio of survival time for treated (T)/control (C) animals is calculated. A criterion for efficacy is a ratio T/C times 100 greater than or equal to 125. See Cancer Chemotherapy Reports, Part 3, 3, 1 (1972) for a comprehensive discussion of the protocol.

Streptococcus pneumoniae = assay: in vitro antibacterial (ABMF) microdilution susceptibility test; assay type: cell-based; settings: read-out: ABMF Test M.I.C. S. pneu.
Description: (§1) (d) Still another test protocol is the in vitro antibacterial (ABMF) test which is a recognized standard microdilution susceptibility procedure in Mueller-Hinton broth against gram-positive and gram-negative bacterial test organisms. The procedure is a modification of a state-of-the-art procedure reported in Manual of Clinical Microbiology, Lennette, E. H., ed., by Barry, A. L. and C. Thornsberry at pages 463-474 and by Gavan, T. L. and A. L. Barry at pages 459-462, American Society for Microbiology, Washington, 1980.
(§2) In the test, a given bacterial culture is used to inoculate individaul test wells of microdilution trays containing growth medium and test compound, the latter in a microdilution series: 1000, 333, 111, 37, 12, 4, 1.4, and 0.46 micrograms per milliliter. […] For convenience, values are reported for Escherichia coli, Branhamella catarrhalis, Alcaligenes viscolactis, Streptococcus pneumoniae, and Bacillus cereus

Escherichia coli = assay: as above; assay type: cell-based; settings: read-out: ABMF Test M.I.C. E. coli
Description: as §1, §2

Bacillus cereus = assay: as above; assay type: cell-based; settings: read-out: ABMF Test M.I.C. B. cere.
Description: as §1, §2

Alcaligenes viscolactis = assay: as above; assay type: cell-based; settings: read-out: ABMF Test M.I.C. A. visc.
Description: as §1, §2

Branhamella catarrhalis = assay: as above; assay type: cell-based; settings: Moraxella catarrhalis, read-out: ABMF Test M.I.C. B. cata.
Description: as §1, §2

HCT-8 cells = assay: in vitro proliferating human colon adenocarcinoma (HCA) cell screen, HCT-8; assay type: cell-based; settings: HCT-8 cells, 60 to 65 hours, ED50, read-out: HCA ED50 Avg.
Description: (a) One test protocol is the in vitro proliferating human colon adenocarcinoma (HCA) cell screen. In this test, HCT-8 cells (HCA cell line received from Yale University) are trypsinized using trypsin-EDTA. A single cell suspension is achieved by passing the cells through a 26 gauge needle with a 20-cc syringe. A cell suspension is prepared using RPMI 1640+10% FCS+50 μg/ml gentamicin sulfate with a cell concentration is approximately 30,000 cells/ml. The cell suspension is dispensed in Linbro 24-well plates; 1 ml/well. The plates are incubated for approximately 48 hours at 37° C. in a 5% CO2 atmosphere. At this time test compounds are added in the appropriate concentration. Five μl of the 200 μg/ml stock solution is added to each well in a primary test. […] of the appropriate dilution is added to each well for a titration test. The plates are reincubated an additional 60 to 65 hours at 37° C. in a 5% CO 2 atmosphere. The cells are lysed using a mix of cationic surfactant, glacial acetic acid, and sodium chloride. Two ml of the lysed cell suspension from each well is added to 8 ml of diluent. The number of nuclei is determined using a Coulter counter (ZBI model), and a percent growth for each drug concentration is calculated. From this, and ID50 (molar concentration of compound that results in 50% inhibition of growth) is determined.

[2] = Mueller-Hinton broth, 37° C., 16-24 hours

SMILES	IC50 (L1210 cells; 72 h, L1210 cells, three days)	MIC (Streptococcus pneumoniae; [2])	MIC (Escherichia coli; [2])	MIC (Bacillus cereus; [2])	MIC (Alcaligenes viscolactis; [2])	MIC (Branhamella catarrhalis; [2])	response vs control in vivo at 12.5 mg/kg [1]	IC50 (L1210 cells; L1210, 72 h)	MIC (Streptococcus pneumoniae)	MIC (Escherichia coli)	MIC (Bacillus cereus)	MIC (Alcaligenes viscolactis)	MIC (Branhamella catarrhalis)	also measured
CCOC(=O)Oc1ccc2c(c1)-c1nn(CCN(CC)CC)c3ccc([N+](=O)[O-])c(c13)N2 [Example 32, [2-[2-(Diethylamino)ethyl]-2,6-dihydro-5-nitropyrazolo [3,4,5-kl]acridin-9-yl]carbonic acid ethyl ester, methanesulfonate (salt) (1:1)]	3.2 nM	< 0.46 µg/mL	4.1 µg/mL	< 0.46 µg/mL	< 0.46 µg/mL	1.4 µg/mL	–	–	–	–	–	–	–	response vs control in vivo at 3.12 mg/kg ([1]; 3.12 mg/kg): 208%; response vs control in vivo at 6.25 mg/kg [1]: 168%
CCN(CC)CCn1nc2c3c(c([N+](=O)[O-])ccc31)Nc1ccc(N(C)C)cc1-2.CS(=O)(=O)O.CS(=O)(=O)O [Example 33, 9-(Dimethylamino)-N,N-diethyl-5-nitropyrazolo[3,4,5-kl]acridine-2(6H)-ethanamine, methanesulfonate (1:2)]	900 nM	1.4 µg/mL	37 µg/mL	37 µg/mL	1.4 µg/mL	12.3 µg/mL	127%	–	–	–	–	–	–	IC50 (HCT-8 cells): 320 nM; response vs control in vivo at 25 mg/kg [1]: 158%
CCNCCn1nc2c3c(c([N+](=O)[O-])ccc31)Nc1ccc(OC)cc1-2 [Example 36, N-Ethyl-9-methoxy-5-nitropyrazolo[3,4,5-kl]acridine-2(6H)-ethanamine, 1.25 methanesulfonate salt (4:5), hemihydrate]	210 nM	< 0.46 µg/mL	1.4 µg/mL	1.4 µg/mL	< 0.46 µg/mL	< 0.46 µg/mL	169%	–	–	–	–	–	–	IC50 (HCT-8 cells): 120 nM; response vs control in vivo at 25 mg/kg [1]: 160%; response vs control in vivo at 50 mg/kg [1]: 223%
CN(C)CCn1nc2c3c(c([N+](=O)[O-])ccc31)Nc1ccc(N(C)C)cc1-2 [Example 39, 9-(Dimethylamino)-N,N-dimethyl-5-nitropyrazolo[3,4,5-kl]acridine-2(6H)-ethanamine, methanesulfonate (1:2), dihydrate]	600 nM	1.4 µg/mL	12.3 µg/mL	12.3 µg/mL	1.4 µg/mL	12.3 µg/mL	164%	–	–	–	–	–	–	response vs control in vivo at 6.25 mg/kg [1]: 126%; response vs control in vivo at 25 mg/kg [1]: 189%
CCN(CC)CCCn1nc2c3c(c([N+](=O)[O-])ccc31)Nc1ccc(OC)cc1-2 [Example 43, N,N-Diethyl-9-methoxy-5-nitropyrazolo[3,4,5-kl]acridine-2(6H)-propanamine, methanesulfonate, hydrate (1:1)]	1300 nM	< 0.46 µg/mL	1.4 µg/mL	4.1 µg/mL	< 0.46 µg/mL	4.1 µg/mL	184%	–	–	–	–	–	–	response vs control in vivo at 6.25 mg/kg [1]: 165%; response vs control in vivo at 50 mg/kg [1]: 202%
CC(=O)Oc1ccc2c(c1)-c1nn(CCCN(C)C)c3ccc([N+](=O)[O-])c(c13)N2 [Example 47, 2-[3-(Dimethylamino)propyl]-5-nitropyrazolo[3,4,5-kl]acridin-9-ol, acetate (ester), methanesulfonate (salt) (1:1)]	1.9 nM	< 0.46 µg/mL	< 0.46 µg/mL	< 0.46 µg/mL	< 0.46 µg/mL	< 0.46 µg/mL	–	–	–	–	–	–	–	response vs control in vivo at 0.39 mg/kg ([1]; 0.39 mg/kg): 144%; response vs control in vivo at 0.78 mg/kg [1]: 178%
CN(C)CCCn1nc2c3c(c([N+](=O)[O-])ccc31)Nc1ccc(OC(=O)C(C)(C)C)cc1-2 [Example 48, 2-[3-(Dimethylamino)propyl]-5-nitropyrazolo[3,4,5-kl]acridin-9-ol, 2,2-dimethylpropanoate (ester), methanesulfonate (salt) (1:1)]	9.8 nM	4.1 µg/mL	3.7 µg/mL	333 µg/mL	0.46 µg/mL	1.4 µg/mL	–	–	–	–	–	–	–	response vs control in vivo at 0.78 mg/kg [1]: 175%; response vs control in vivo at 1.56 mg/kg ([1]; 1.56 mg/kg): 263%
CCN(CC)CCn1nc2c3c(c([N+](=O)[O-])cc([N+](=O)[O-])c31)Nc1ccc(O)cc1-2 [Example 49, 2-[2-(Diethylamino)ethyl]-2,6-dihydro-3,5-dinitropyrazolo[3,4,5-kl]acridin-9-ol, methanesulfonate, hemihydrate]	–	–	–	–	–	–	–	6.8 nM	< 0.46 µg/mL	< 0.46 µg/mL	< 0.46 µg/mL	< 0.46 µg/mL	< 0.46 µg/mL	–
CCOc1ccc2c(c1)-c1nn(CCN(CC)CC)c3c([N+](=O)[O-])cc([N+](=O)[O-])c(c13)N2.CS(=O)(=O)O.O [Example 51, 9-Ethoxy-N,N-diethyl-3,5-dinitropyrazolo[3,4,5-kl]acridine-2(6H)-ethanamine, methanesulfonate, hydrate]	–	–	–	–	–	–	–	380 nM	111 µg/mL	> 1000 µg/mL	333 µg/mL	< 0.46 µg/mL	333 µg/mL	–
CCN(CC)CCn1nc2c3c(c([N+](=O)[O-])cc([N+](=O)[O-])c31)Nc1ccc(OCc3ccc(OC)cc3)cc1-2.CS(=O)(=O)O [Example 53, N,N-Diethyl-9-[(4-methoxyphenyl)methoxy]-3,5-dinitropyrazolo[3,4,5-kl]acridine-2(6H)-ethanamine, methanesulfonate (1:1)]	–	–	–	–	–	–	–	6.8 nM	< 0.46 µg/mL	< 0.46 µg/mL	< 0.46 µg/mL	< 0.46 µg/mL	< 0.46 µg/mL	–
COc1ccc2c(c1)-c1nn(CCCN(C)C)c3c([N+](=O)[O-])cc([N+](=O)[O-])c(c13)N2.CS(=O)(=O)O [Example 55, N,N-Dimethyl-3,5-dinitro-9-methoxypyrazolo[3,4,5-kl]acridine-2(6H)-propanamine, methanesulfonate (1:1)]	–	–	–	–	–	–	–	220 nM	< 0.46 µg/mL	< 0.46 µg/mL	< 0.46 µg/mL	< 0.46 µg/mL	< 0.46 µg/mL	–
